Several values for one entry are separate records, joined by “and”; a condition that tells them apart may be missing. Equal entries are not always repeated. No end group written: not given here.
Target: T1, recombinant human NRP-1 (hNRP-1) (Homo sapiens, UniProt O14786)
T1 construct: purchased BioLegend, San Diego, CA, USA
Experiment: chemoluminescence affinity detection: displacement of biotinylated VEGF165A from coated NRP-1
Assay type: binding
Details: VEGF 165A displacement from NRP-1; compounds at 12.5-100 µM; ± standard (fitting) error

T1 sequence (O14786 22-923): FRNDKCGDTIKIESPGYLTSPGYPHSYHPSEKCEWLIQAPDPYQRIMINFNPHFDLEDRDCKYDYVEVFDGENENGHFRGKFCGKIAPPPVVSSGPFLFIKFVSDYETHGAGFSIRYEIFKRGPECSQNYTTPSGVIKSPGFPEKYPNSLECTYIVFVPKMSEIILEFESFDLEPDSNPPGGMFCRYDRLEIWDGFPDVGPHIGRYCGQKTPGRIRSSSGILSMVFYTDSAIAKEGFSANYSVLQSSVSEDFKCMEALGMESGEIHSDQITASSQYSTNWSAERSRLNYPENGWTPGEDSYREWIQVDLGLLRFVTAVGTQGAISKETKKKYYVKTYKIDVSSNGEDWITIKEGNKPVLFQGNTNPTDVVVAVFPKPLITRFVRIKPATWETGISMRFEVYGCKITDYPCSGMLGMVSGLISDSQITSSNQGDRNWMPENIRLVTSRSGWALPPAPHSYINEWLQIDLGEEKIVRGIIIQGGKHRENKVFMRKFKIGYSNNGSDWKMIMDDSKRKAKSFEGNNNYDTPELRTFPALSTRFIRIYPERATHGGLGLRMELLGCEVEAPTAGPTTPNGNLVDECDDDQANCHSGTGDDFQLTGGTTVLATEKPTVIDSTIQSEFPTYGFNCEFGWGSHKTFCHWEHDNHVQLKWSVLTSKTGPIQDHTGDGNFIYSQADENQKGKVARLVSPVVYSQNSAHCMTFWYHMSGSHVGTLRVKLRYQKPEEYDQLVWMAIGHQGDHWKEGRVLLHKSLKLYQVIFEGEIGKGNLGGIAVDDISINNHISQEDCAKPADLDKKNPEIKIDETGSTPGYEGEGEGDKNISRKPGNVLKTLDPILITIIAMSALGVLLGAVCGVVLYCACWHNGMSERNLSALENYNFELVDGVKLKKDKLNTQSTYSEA

Compound	IC50
N=C(N)NCCCC[C@H](N)C(=O)NCCCC[C@H](N)C(=O)NCc1cn(Cc2cn([C@@H](CCCNC(=N)N)C(=O)O)nn2)nn1 [1L, H-Lys(Har)-Gly[Trl]Gly[Trl]Arg-OH]	68.5 ± 3.3 µM
N=C(N)NCCCC[C@H](N)C(=O)NCCCC[C@@H](N)C(=O)NCc1cn(Cc2cn([C@@H](CCCNC(=N)N)C(=O)O)nn2)nn1 [1D, H-D-Lys(Har)-Gly[Trl]Gly[Trl]Arg-OH]	63.6 ± 2.3 µM
CC(C)(c1cn([C@@H](CCCNC(=N)N)C(=O)O)nn1)n1cc(CNC(=O)[C@@H](N)CCCCNC(=O)[C@@H](N)CCCCNC(=N)N)nn1 [2L, H-Lys(Har)-Gly[Trl]Mba[Trl]Arg-OH]	87.5 ± 3.3 µM
CC(C)(c1cn([C@@H](CCCNC(=N)N)C(=O)O)nn1)n1cc(CNC(=O)[C@H](N)CCCCNC(=O)[C@@H](N)CCCCNC(=N)N)nn1 [2D, H-D-Lys(Har)-Gly[Trl]Mba[Trl]Arg-OH]	69.4 ± 4 µM

The remaining lines, values ahead:

IC50	Compound
91 µM and 90.5 µM	CC(C)(NC(=O)[C@H](N)CCCCNC(=O)[C@@H](N)CCCCNC(=N)N)c1cn(C(C)(C)c2cn([C@@H](CCCNC(=N)N)C(=O)O)nn2)nn1 [3D, H-D-Lys(Har)-Mba[Trl]Mba[Trl]Arg-OH]
23 µM and 23.4 µM	CC(C)(NC(=O)[C@@H](N)CCCCNC(=O)[C@@H](N)CCCCNC(=N)N)c1cn(C(C)(C)c2cn([C@@H](CCCNC(=N)N)C(=O)O)nn2)nn1 [3L, H-Lys(Har)-Mba[Trl]Mba[Trl]Arg-OH]
36 µM and 35.6 µM	CC(C)(NC(=O)[C@H](N)CCCCNC(=O)[C@@H](N)CCCCNC(=N)N)c1cn(Cc2cn([C@@H](CCCNC(=N)N)C(=O)O)nn2)nn1 [4D, H-D-Lys(Har)-Mba[Trl]Gly[Trl]Arg-OH]
31.2 ± 4.2 µM	ATWLPPR [A7R, ATWLPPR, reference compound]
